Experimental data: paper PMC4820820, “CETSA screening identifies known and novel thymidylate synthase inhibitors and slow intracellular activation of 5-fluorouracil” (Nature Communications, 2016)

The molecules below were run against T1, human thymidylate synthase (TS) (Homo sapiens, UniProt P04818) (assay: ITDRF CETSA at 50 °C, AlphaScreen detection, live K562 cells). Details: 2 h preincubation, 50 °C for 3 min, read-out: […] EC50 (half-maximal stabilization of TS).
T1 construct: screening in live, non-engineered cells expressing thymidylate synthase; endogenous in cells; host or cells: K562 (human myelogenous leukemia) cells
Type: cell-based
Protocol: For the […] experiments 11-point dose-response curves with three-fold difference in concentration between wells were generated using the Bravo liquid handling system (all serial dilutions were done in 100% DMSO). […] The concentration of DMSO was 0.5% in all samples. […] The assay ready plates were prepared as outlined above for the screen.
(§1) The screen procedure started with the addition of 5 μl of a suspension of K562 cells at a density of 10 million cells per ml to all wells of a 384 well hardshell PCR plate (HSR480, BIORAD) using an electronic multichannel pipette (Biohit). […] For the time-course experiments the incubation times were altered to include also 10 min, 30 min and 6 h. […] After the incubation step the plates were transiently heated at 50 °C for 3 min followed by a controlled cooling to 20 °C for 1 min using a real-time PCR machine (LightCycler480 system, Roche). Plate handling was then as described above for the thermal aggregation experiments. The data were analyzed using microsoft excel and GraphPad Prism 6.
(§2) A calculation of the average and standard error of means for each set of controls also allowed an illustration of how these responses varied over the 32 screening plates. The Z′ factor[38] is commonly used as a measure of how well the assay separates between the controls and this was calculated as described based on the calculated averages and standard deviations of the controls on a per plate basis. For the Tagg shift and the […] experiments the data were analyzed in GraphPad Prism using the Boltzmann sigmoid equation and the saturation binding curve (rectangular hyperbola; binding isotherm) function, respectively. As already discussed[14] these methods make use of equilibrium models for data analysis although the methodology depends on the irreversible aggregation of denatured material. For this reason we refer to the observed responses as apparent and isothermal dose-response fingerprints and are careful with any quantitative interpretations, being well aware of their dependency on experimental conditions. Experiments are on-going to address the quantitative interpretation of CETSA data.

T1 sequence (P04818 2-313 limits assumed): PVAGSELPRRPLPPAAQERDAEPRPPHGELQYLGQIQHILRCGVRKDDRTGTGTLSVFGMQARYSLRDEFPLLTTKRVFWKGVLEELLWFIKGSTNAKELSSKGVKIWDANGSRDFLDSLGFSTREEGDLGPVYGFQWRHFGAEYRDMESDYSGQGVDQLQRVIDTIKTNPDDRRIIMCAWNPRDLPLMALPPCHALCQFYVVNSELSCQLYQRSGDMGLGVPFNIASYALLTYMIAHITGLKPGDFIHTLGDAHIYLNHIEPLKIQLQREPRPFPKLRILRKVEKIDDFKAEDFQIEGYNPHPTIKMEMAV

EC50 [nM]	Compound
47 ± 15	O=c1[nH]c(=O)n([C@@H]2O[C@H](CO)[C@@H](O)[C@H]2O)cc1F [5-fluorouridine]

Each molecule was assayed against T1, human thymidylate synthase (TS) (assay: CETSA primary screen / single-concentration retest, AlphaScreen, live K562 cells). Details: 50 μM compound, 2 h preincubation, 50 °C; 0% = DMSO, 100% = 100 nM raltitrexed.
Type: cell-based
Protocol: Compounds were placed in columns 1–22. […] At the day of the experiment the plates were allowed to thaw for 30 min followed by a brief centrifugation step (1,000 × g for 1 min) prior to removal of the seal. The compounds were then diluted with 20 μl supplemented cell culture medium using a Multidrop Combi reagent dispenser (Thermo Scientific). Finally 5 μl of the diluted compounds were transferred to a 384 well hardshell PCR plate (HSR480, BIORAD) using a Bravo liquid handling platform equipped with a 384-well head (Agilent). […] The final concentration of DMSO in the assay was 0.5% in all samples.
as §1, §2

% stabilization in screen [%]	Compound
-1	Cc1cn(C2CC(O)C(CO)O2)c(=O)[nH]c1=O (stereo not drawn) [CBK011998]
2	COC1C(O)C(CO)OC1n1cc(F)c(=S)[nH]c1=O (stereo not drawn) [CBK201168]
17	O=C(O)/C=C/c1cn([C@H]2C[C@@H](O)[C@@H](CO)O2)c(=O)[nH]c1=O [CBK201174]
20	C#Cc1cn([C@@H]2O[C@H](CO)[C@H](O)C2O)c(=O)[nH]c1=O (stereo partly drawn) [CBK201179]
-1	O=c1[nH]c(=O)n([C@@H]2O[C@H](CO)[C@H](O)C2O)cc1Br (stereo partly drawn) [CBK201180]
16	O=C(/C=C/c1cn([C@H]2C[C@@H](O)[C@@H](CO)O2)c(=O)[nH]c1=O)ON1C(=O)CCC1=O [CBK201188]
22	O=c1ncccn1[C@@H]1O[C@H](CO)[C@H](O)C1O (stereo partly drawn) [CBK201195]
0	Cc1cn(C2CC(O)C(CNC(=O)C(F)(F)F)O2)c(=O)[nH]c1=O (stereo not drawn) [CBK201200]
9	O=C(/C=C/c1cn(C2CC(O)C(CO)O2)c(=O)[nH]c1=O)NCCNC(=O)C(F)(F)F (stereo not drawn) [CBK201214]
7	Nc1nc(=O)n([C@H]2C[C@@H](O)[C@@H](CO)O2)cc1I [CBK201226]
-1	O=C(/C=C/c1cn(C2OC(CO)C(O)C2O)c(=O)[nH]c1=O)NCCCCCCNC(=O)C(F)(F)F (stereo not drawn) [CBK201231]
-1	Cc1cn(C2CC(O)C(C3N(c4ccccc4)CCN3c3ccccc3)O2)c(=O)[nH]c1=O (stereo not drawn) [CBK201232]
9	O=c1nc2c(cn1[C@H]1C[C@@H](O)[C@@H](CO)O1)Sc1ccccc1N2 [CBK201237]
17	O=c1[nH]c(=O)n([C@H]2C[C@@H](O)[C@@H](CO)O2)cc1CCO [CBK201239]
17	O=C(NC/C=C/c1cn(C2CC(O)C(CO)O2)c(=O)[nH]c1=O)C(F)(F)F (stereo not drawn) [CBK201249]
-1	COC1C(O)C(CO)OC1n1cc(C)c(=O)[nH]c1=O (stereo not drawn) [CBK201251]
61	COC1C(O)C(CO)OC1n1cc(F)c(=O)[nH]c1=O (stereo not drawn) [CBK201253]
16	Nc1cccc(-c2cn([C@H]3C[C@@H](O)[C@@H](CO)O3)c(=O)[nH]c2=O)c1 [CBK201262]
17	Cc1cn([C@@H]2O[C@H](CO)[C@H](O)C2O)c(=O)[nH]c1=O (stereo partly drawn) [CBK201265]
-1	O=C(O)/C=C/c1cn([C@@H]2O[C@H](CO)[C@H](O)C2O)c(=O)[nH]c1=O (stereo partly drawn) [CBK201270]
-1	Nc1ccn([C@H]2C[C@@H](O)[C@@H](CO)O2)c(=O)n1 [CBK201274]

% stabilization in screen [%]	Compound
7	C#CCOc1cn([C@H]2C[C@@H](O)[C@@H](CO)O2)c(=O)[nH]c1=O [CBK201278]
0	COC1C(O)C(CO)OC1n1cc(F)c(Oc2c(C)cc(C)cc2C)nc1=O (stereo not drawn) [CBK201279]
0	Cc1cn2c(nc1=O)OC[C@H]1O[C@@H]2C[C@H]1O [CBK201280]
-1	Cn1c(=O)ccn([C@@H]2O[C@H](CO)[C@H](O)C2O)c1=O (stereo partly drawn) [CBK201281]
-2	Cc1ccc(S(=O)(=O)OC[C@H]2O[C@@H](n3ccc(=O)[nH]c3=O)C[C@H]2O)cc1 [CBK201283]
20	Cc1cc2cn([C@H]3C[C@@H](O)[C@@H](CO)O3)c(=O)nc2o1 [CBK201287]
-1	O=C(NC/C=C/c1cn(C2OC(CO)C(O)C2O)c(=O)[nH]c1=O)C(F)(F)F (stereo not drawn) [CBK201298]
21	Cc1cc2cn([C@H]3C[C@@H](O)[C@@H](CO)O3)c(=O)nc2[nH]1 [CBK201302]
-1	O=c1[nH]c(=O)n([C@@H]2O[C@H](CO)[C@H](O)C2O)cc1I (stereo partly drawn) [CBK201304]
-1	Nc1nc(=O)n([C@@H]2O[C@H](CO)[C@H](O)C2O)cc1I (stereo partly drawn) [CBK201306]
4	Cc1cn([C@H]2C[C@@H](O)[C@@H](CO)O2)c(=O)nc1N.Cl [CBK201307]
15	O=C(/C=C/c1cn(C2CC(O)C(CO)O2)c(=O)[nH]c1=O)NCCCCCCNC(=O)C(F)(F)F (stereo not drawn) [CBK201310]
-1	Cc1cn([C@H]2C[C@@H](O)[C@@H](CN)O2)c(=O)[nH]c1=O [CBK201315]
-1	O=c1ccn([C@H]2C[C@@H](O)[C@@H](CO)O2)c(=O)[nH]1 [CBK201316]
16	O=c1[nH]c(=O)n([C@H]2C[C@@H](O)[C@@H](CO)O2)cc1O [CBK201317]
-1	Cc1cn([C@H]2C[C@@H](O)[C@@H](CO)O2)c(=O)n(CCC#N)c1=O [CBK201322]
13	CN(C)/C=N/c1nc(=O)n([C@H]2CC(O)[C@@H](CO)O2)cc1/C=C/C(=O)NCCCCCCNC(=O)C(F)(F)F (stereo partly drawn) [CBK201330]
9	O=c1[nH]c(=O)n([C@H]2C[C@@H](O)[C@@H](CO)O2)cc1CO [CBK201332]
-1	CCOc1nc(=O)c(C)cn1C1CC(O)C(CO)O1 (stereo not drawn) [CBK201334]
-1	COC(=O)/C=C/c1cn(C2OC(CO)C(O)C2O)c(=O)[nH]c1=O (stereo not drawn) [CBK201339]

Compound	% stabilization in screen [%]
C[CH2][Hg][S]c1ccccc1C(=O)[O-].[Na+] [CBK200591N, Thimerosal, reference compound]	115
Cc1cn([C@H]2C[C@@H](O)[C@@H](CI)O2)c(=O)[nH]c1=O [CBK201197]	-1

Same assay, conditions: 6 h preincubation, K562 cells

% stabilization at retest (6h preincubation) [%]	Compound
5	COC1C(O)C(CO)OC1n1cc(F)c(=S)[nH]c1=O (stereo not drawn) [CBK201168]
12	C#CCOc1cn([C@H]2C[C@@H](O)[C@@H](CO)O2)c(=O)[nH]c1=O [CBK201278]
7	O=c1[nH]c(=O)n([C@H]2C[C@@H](O)[C@@H](CO)O2)cc1CO [CBK201332]

Same assay, conditions: K562, 2 h, 50 μM compound, 2 h preincubation, 50 °C; 0% = DMSO, 100% = 100 nM raltitrexed; read-out: % stabilization in screen

% stabilization in screen at 50 µM [%]	Compound
17	c1cnc(N2CCN(Cc3ccc4c(c3)OCO4)CC2)nc1 [CBK041124C, Piribedil, reference compound]
66	Clc1ccc(C(Cn2ccnc2)OCc2csc3c(Cl)cccc23)c(Cl)c1 (stereo not drawn) [CBK200917G, Sertaconazole nitrate, reference compound]
56	CC(=O)OCC(=O)[C@@]12OC3(CCCC3)O[C@@H]1C[C@H]1[C@@H]3CCC4=CC(=O)C=C[C@]4(C)[C@@]3(F)[C@@H](O)C[C@@]12C [CBK200950, Amcinonid, reference compound]
66	CN1CCN(c2c(F)cc3c(=O)c(C(=O)O)cn(CCF)c3c2F)CC1 [CBK201030, Fleroxacin, reference compound]

Same assay, conditions: K562, 2 h; read-out: % stabilization in screen

% stabilization in screen at 50 µM [%]	Compound
78	Nc1nc(N)c2nc(-c3ccccc3)c(N)nc2n1 [CBK012158, Triamterene, reference compound]
14	CC(C)NCC(O)c1ccc(NS(C)(=O)=O)cc1 (stereo not drawn) [CBK012353C, Sotalol, reference compound]
20	Nc1ncnc2c1nc(Br)n2[C@@H]1O[C@H](CO)[C@@H](O)[C@H]1O [CBK015742, 8-bromoadenosine]
59	COc1ccccc1N1CCN(CC(O)COc2cccc3ccccc23)CC1 (stereo not drawn) [CBK041301C, Naftopidil, reference compound]
61	Cc1ccc(-c2cc(C(F)(F)F)nn2-c2ccc(S(N)(=O)=O)cc2)cc1 [CBK041793, Celecoxib, reference compound]
32	Nc1ncn([C@@H]2O[C@H](CO)[C@@H](O)[C@H]2O)c(=O)n1 [CBK200768, 5-Azacytidine, reference compound]
23	Cc1ccc2c(c1)c1c3n2CCNC3CCC1 (stereo not drawn) [CBK200931G, Pirlindole, reference compound]
0	Nc1ccn([C@@H]2O[C@H](CO)[C@@H](O)C2(F)F)c(=O)n1 [CBK200978, gemcitabine, reference compound]
30	C=CCOc1nc2c(=O)[nH]c(NC(=O)C(C)C)nc2n1[C@H]1C[C@H](O)[C@@H](CO)O1 [CBK201216, 8-allyloxy-N2-isobutyryl-2′-deoxyguanosine]
